Data set [1] can be described thus: Solubility of drug in menthol melt. The data set is classed as physicochemical. The following applies: for Solubility: in menthol melt. As to the method: Menthol (10 grams) was melted on a stirring hot plate with magnetic stirring, then heated to the desired temperature indicated in Table 1. The desired drug was added in small increments (approximately 0.1 grams) and stirred to obtain a clear solution. The desired drug was added in increments until no more drug dissolved in the menthol.
Menthol (10 grams) was melted on a stirring hot plate with magnetic stirring, then heated to the desired temperature indicated in Table 1. The Azithromycin was added in small increments (0.1 grams) and stirred to obtain a clear solution. The drug was added in increments until no more drug dissolved in the menthol.

The test system of data set [2] is antimicrobial peptide gene expression. The following applies: Wang et al., J. Immunol. 2004; cited from earlier work.

The source of these data is US20080057129A1, “Drug microparticles” (priority 2006, published 2008).

The structures appear in SMILES notation.

Consider `CC[C@H]1OC(=O)[C@H](C)[C@@H](O[C@H]2C[C@@](C)(OC)[C@@H](O)[C@H](C)O2)[C@H](C)[C@@H](O[C@@H]2O[C@H](C)C[C@H](N(C)C)[C@H]2O)[C@](C)(O)C[C@@H](C)CN(C)[C@H](C)[C@@H](O)[C@]1(C)O` [Azithromycin], for which the Solubility in data set [1] (63 °C) was found to be 40.0 % w/w.

On to `CC(=O)O[C@@]12CO[C@@H]1C[C@H](O)[C@@]1(C)C(=O)[C@H](O)C3=C(C)[C@@H](OC(=O)[C@H](O)[C@@H](NC(=O)OC(C)(C)C)c4ccccc4)C[C@@](O)([C@@H](OC(=O)c4ccccc4)[C@H]21)C3(C)C` [Docetaxel], for which, in data set [1] (without the additives PEG 6000 and Poloxamer 407), the “solubility in the menthol melt” value is recorded as “soluble”.

On to `CCC(C)n1ncn(-c2ccc(N3CCN(c4ccc(OCC5COC(Cn6cncn6)(c6ccc(Cl)cc6Cl)O5)cc4)CC3)cc2)c1=O` (stereo not drawn) [Itraconazole], for which the solubility in menthol in data set [1] (60° C.) is recorded as 1%. Besides, the Solubility in data set [1] (61 °C) is 1.0 % w/w.

`O=C(O)c1ccccc1O` [Salicylic acid] returned a Solubility in data set [1] (43 °C) of 16.0 % w/w.

On to `C=C1/C(=C\C=C2/CCC[C@]3(C)[C@@H]([C@H](C)CCCC(C)(C)O)CC[C@@H]23)C[C@@H](O)C[C@@H]1O` [calcitriol, 1,25-dihydroxyvitamin D3], for which, in data set [2], the “induction of antimicrobial peptide gene expression” value is reported as “inducer of the antimicrobial peptide gene expression”.
